Assay results: paper PMC11091117, “A fluorescently-tagged tick kinin neuropeptide triggers peristalsis and labels tick midgut muscles” (Scientific Reports, 2024)
“Also recorded” adds a separate entry of the source. Where no end group is shown, it is not given here.

What was measured:
[1] = system: tick kinin receptor (recombinant R. microplus receptor, CHO-K1 BMLK3 cells); assay: Cellular end-point fluorescence calcium mobilization assay, BMLK3 cells; type: cell-based, Rhipicephalus microplus
Excerpt: Three peptides were used in this study. These included: 1) the ligand for the endogenous tick kinin receptor from Rhipicephalus sanguineus, Rhisa-kinin 8 peptide of sequence GTGEDQAFSPWGamide (Rhisa-K-8; RK8; of identical sequence to Rhimi-K-8 in Rhipicephalus microplus)[48], 2) the same peptide but fluorescently labeled at the N-terminus with tetramethylrhodamine (TMR) a red fluorescent dye, designated TMR-Rhisa-K-8 (TMR-RK8), and 3) a labeled peptide synthesized with the scrambled sequence of the kinin ligand, designated TMR-Scrambled. The sequence of TMR-RK8 was TMR-C-GTGEDQAFSPWGamide). The TMR-Scrambled kinin (TMR-C-GTQWGPGFEADSamide) served as a negative control for tissue labeling. All peptides were custom-synthesized and purchased from GenScript (Piscataway, NJ, USA) with a purity of ≥ 95% and the cysteine in bold in both sequences was added to attach the label. Experiments were replicated with independently synthesized batches (4 mg each) of labeled and unlabeled peptides, for reproducibility. Unlabeled RK8 was used as a competitive ligand to verify target-specific binding of the labeled TMR-RK8 (see Ligand Competition Assay). For cell assays, the peptide stock solutions (100 µM) were made in 1% dimethyl sulfoxide (DMSO) in Hank’s balanced salt solution (HBSS, Thermo Fisher, Waltham, USA). For fluorescent cell labeling, peptide working solutions (10 µM) were prepared in HBSS from stock solutions. For assays on the midgut, peptides were solubilized and diluted in a tick physiological saline consisting of 140 mM NaCl, 5 mM KCl, 1 mM MgCl2, 5 mM CaCl2, 4 mM NaHCO3, and 5 mM HEPES, pH 7.2[49].
The tick kinin receptor is stably expressed in the recombinant CHO-K1 cell line designated BMLK3 (Boophilus microplus leucokinin receptor 3) that was constructed and selected as described by Holmes, et al.[47]. The CHO-K1 cells had been obtained from the American Type Culture Collection (ATCC) for transfection with the expression construct. This cell line has been kept in the laboratory since 2003. Cells that were transfected only with an empty plasmid are referred to as “vector-only” (V/O) cells and were used as a negative control. Before all experiments, the BMLK3 cell line or V/O cells were separately cultured in T-75 flasks with selective medium (F-12 K medium containing 10% FBS and 800 μgmL^−1 of G418 sulfate) for one to two passages in a humidified incubator at 37 °C and 5% CO2.
A fluorescence-based intracellular calcium mobilization end-point assay described by Xiong, et al.[50] was used to confirm the activity of the TMR-labeled RK8 peptide on a cell line expressing the tick kinin receptor. For this, BMLK3 and V/O cells were cultured in F-12 K medium (1% FBS and 400 μgmL^−1- of G418 Sulfate). The cells were seeded in a 96-well plate with 20,000 cells per well and incubated overnight at 37 °C and 5% CO2. The next morning, cells were prepared for the assay following the manufacturer’s instructions for the Fluo-8 Calcium Flux Assay Kit – NoWash (Abcam, Cambridge, United Kingdom). The F-12 K medium in the plate was removed by inverting the plate and gently blotting on paper towels. […] The calcium fluorescence signal was detected by a CLARIOstar (BMG LABTECH, Chicago, IL, United States) plate reader set to read at the fluorescence plate-mode with excitation and emission wavelengths of 490 and 525 nm at 29 °C. Calcium responses were read immediately after the addition of 10 µL of either TMR-RK8, unlabeled RK8, or blank solvent (1% DMSO in HBSS). […]

[2] = system: R. microplus recombinant receptor; set-up: method as in PMID 31794138; conditions: cited from earlier work
[3] = system: tick kinin receptors on midgut muscles; assay: Ligand competition assay on midgut; type: binding, Rhipicephalus sanguineus; conditions: TMR-RK8 10 µM 1 min, then unlabeled RK8 100 µM 1 min, tick saline, confocal 20x
Excerpt: Individual female ticks were immobilized on a Petri dish filled with wax by submerging their legs in melted wax heated with a soldering pencil (Electronic Control Soldering Station EC 1000, Weller, Apex, North Carolina, USA). Females were dissected under physiological saline following the protocol described by Tidwell et al.[51]. The tick was cut along the edge of the scutum/alloscutum using a stainless steel #12 scalpel blade (Integra Miltex, York, PA, USA), after which the scutum was removed with a pair of fine forceps. To expose the midgut for removal, the tracheae, Malpighian tubules, ovaries, rectal sac, and synganglion were removed with fine forceps in that order. The midgut was then carefully removed and placed into 200 µL of fresh tick saline (See Reagents and Peptides) on a single gasketed incubation chamber (500 µL, Size 22 × 40 mm, Electron Microscopy Sciences, Hatfield, PA). […]
Fluorescently-labeled midgut tissues were imaged using a Leica SP8 inverted confocal microscope. For fluorescence excitation, the 405 nm fixed-wavelength laser was used for DAPI and a white light laser selective for wavelengths between 470 and 670 nm was used for tetramethylrhodamine and phalloidin. […] Images were analyzed and computer-colored using Fiji/ImageJ (National Institutes of Health, Bethesda, MD). […]

[4] = system: vector-only (V/O) CHO-K1 cells; assay: Cellular end-point fluorescence calcium mobilization assay, vector-only control cells; type: cell-based; conditions: 10 µM peptide, Fluo-8, 29 °C, 60 s, 4 technical replicates
Excerpt: Three peptides were used in this study. These included: 1) the ligand for the endogenous tick kinin receptor from Rhipicephalus sanguineus, Rhisa-kinin 8 peptide of sequence GTGEDQAFSPWGamide (Rhisa-K-8; RK8; of identical sequence to Rhimi-K-8 in Rhipicephalus microplus)[48], 2) the same peptide but fluorescently labeled at the N-terminus with tetramethylrhodamine (TMR) a red fluorescent dye, designated TMR-Rhisa-K-8 (TMR-RK8), and 3) a labeled peptide synthesized with the scrambled sequence of the kinin ligand, designated TMR-Scrambled. The sequence of TMR-RK8 was TMR-C-GTGEDQAFSPWGamide). The TMR-Scrambled kinin (TMR-C-GTQWGPGFEADSamide) served as a negative control for tissue labeling. […]
A fluorescence-based intracellular calcium mobilization end-point assay described by Xiong, et al.[50] was used to confirm the activity of the TMR-labeled RK8 peptide on a cell line expressing the tick kinin receptor. […] The calcium fluorescence signal was detected by a CLARIOstar (BMG LABTECH, Chicago, IL, United States) plate reader set to read at the fluorescence plate-mode with excitation and emission wavelengths of 490 and 525 nm at 29 °C. Calcium responses were read immediately after the addition of 10 µL of either TMR-RK8, unlabeled RK8, or blank solvent (1% DMSO in HBSS). […]

## GTGEDQAFSPWG-NH2 [RK8, endogenous ligand of the tick kinin receptor from Rhipicephalus sanguineus, identical to Rhimi-K-8 of R. microplus]
[1]; 10 nM to 10 μM (four concentrations), 1% DMSO in HBSS, Fluo-8, Ex 490/Em 525 nm, 29 °C, read 60 s at 1 s intervals, average raw fluorescence units of 4 technical replicates, simple linear regression
  intracellular calcium fluorescence response / receptor activation (in words): elicited a dose-dependent intracellular calcium fluorescence response
[1]; highest concentration assayed 10 µM, Fluo-8, 4 technical replicates
  fluorescence units at highest concentration, TMR-RK8 compared with RK8 (in words): maximal and similar for the highest concentration assayed of 10 µM
[2]
  activity on the R. microplus recombinant receptor (in words): highly active at the nanomolar level
[3]
  displacement of TMR-RK8 muscle labeling by unlabeled RK8 (in words): substantial reduction in the fluorescent signal observed on muscles; also recorded: greatly reduced the fluorescent signal of muscles; also recorded: competitive inhibition of fluorescent signal on muscle tissue
[3]; listed as kinin 8
  displacement of TMR-RK8 muscle labeling by unlabeled RK8 (in words): competed TMR-RK8, decreasing confocal microscopy signal intensity
[4]
  calcium fluorescence response of vector-only cells (in words): invariable background fluorescence
